Test results from ChEMBL document CHEMBL1201862, “PubChem BioAssay data set” (2004).
Active and inactive are the calls of the source.

Legend:
Hexokinase HKDC1 = molecular target: T1, Hexokinase HKDC1 (Homo sapiens, UniProt Q2TB90); assay: HKDC1 hexokinase inhibitors, dose response, biochemical, W721R variant (AID 504729); format: functional
T1 sequence (Q2TB90 whole entry): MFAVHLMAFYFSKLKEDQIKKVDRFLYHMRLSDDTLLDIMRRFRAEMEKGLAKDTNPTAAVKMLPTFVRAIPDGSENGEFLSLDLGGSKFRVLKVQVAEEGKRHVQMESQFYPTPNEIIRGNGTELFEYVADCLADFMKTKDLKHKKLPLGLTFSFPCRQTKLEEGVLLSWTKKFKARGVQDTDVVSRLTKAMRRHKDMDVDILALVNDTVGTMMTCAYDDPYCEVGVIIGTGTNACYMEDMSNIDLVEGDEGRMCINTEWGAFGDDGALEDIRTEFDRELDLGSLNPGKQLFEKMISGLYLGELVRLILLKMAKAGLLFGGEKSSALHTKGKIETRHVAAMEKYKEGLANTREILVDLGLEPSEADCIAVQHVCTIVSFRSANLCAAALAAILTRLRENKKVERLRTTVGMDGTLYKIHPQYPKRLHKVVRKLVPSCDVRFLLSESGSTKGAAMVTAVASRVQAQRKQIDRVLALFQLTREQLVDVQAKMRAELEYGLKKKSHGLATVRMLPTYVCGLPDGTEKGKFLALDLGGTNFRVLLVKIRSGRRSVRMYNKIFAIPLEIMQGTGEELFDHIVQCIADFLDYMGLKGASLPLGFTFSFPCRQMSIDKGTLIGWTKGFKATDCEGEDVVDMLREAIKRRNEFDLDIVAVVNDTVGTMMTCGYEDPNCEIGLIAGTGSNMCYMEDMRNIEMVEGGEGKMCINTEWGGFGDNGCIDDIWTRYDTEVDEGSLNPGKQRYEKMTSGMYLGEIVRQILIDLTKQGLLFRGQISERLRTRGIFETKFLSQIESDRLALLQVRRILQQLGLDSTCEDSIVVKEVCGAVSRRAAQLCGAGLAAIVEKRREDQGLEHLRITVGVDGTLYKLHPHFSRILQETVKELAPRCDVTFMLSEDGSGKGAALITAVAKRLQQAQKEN

[1] = molecular target: T2, Tyrosine-protein phosphatase non-receptor type 7 (Homo sapiens, UniProt P35236); assay: redox-dependent HePTP inhibition, mechanism study, biochemical, fluorescence (AID 2068); format: functional
T2 sequence (P35236 whole entry): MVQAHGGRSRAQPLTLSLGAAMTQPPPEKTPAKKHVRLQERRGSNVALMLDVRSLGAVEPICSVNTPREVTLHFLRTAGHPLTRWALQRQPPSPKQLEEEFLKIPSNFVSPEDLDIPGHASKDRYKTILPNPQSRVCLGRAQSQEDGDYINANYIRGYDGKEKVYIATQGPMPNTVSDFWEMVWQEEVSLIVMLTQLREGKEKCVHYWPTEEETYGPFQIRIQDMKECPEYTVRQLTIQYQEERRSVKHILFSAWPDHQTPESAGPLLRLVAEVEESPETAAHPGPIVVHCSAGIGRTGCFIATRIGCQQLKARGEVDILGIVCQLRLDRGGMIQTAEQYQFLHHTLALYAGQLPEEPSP

[2] = molecular target: Intestinal-type alkaline phosphatase (Mus musculus, UniProt P24822); assay: mouse intestinal alkaline phosphatase activators, dose response, biochemical, luminescence, uHTS hits (AID 488783); format: functional
[3] = molecular target: Guanyl-specific ribonuclease T1 (Aspergillus oryzae (strain ATCC 42149 / RIB 40), UniProt P00651); assay: RNase T1 inhibitors, dose response, counter-screen for TPT1 inhibitor project, biochemical, fluorescence polarization, 1536-well (AID 2167)
[4] = molecular target: 72 kDa type IV collagenase (Homo sapiens, UniProt P08253); assay: Dose Response validation of uHTS RPN11 inhibitor hits using a MMP-2 Fluorescence assay.; format: functional
[5] = molecular target: Intestinal-type alkaline phosphatase (Homo sapiens, UniProt P09923); assay: activation of human intestinal alkaline phosphatase – biochemical, dose response (AID 488873); format: functional
Keap1/Nrf2 = Keap1/Nrf2 (Homo sapiens, UniProt Q14145); assay: Keap1-Nrf2 protein-protein interaction inhibitors, dose response, biochemical, fluorescence polarization, cherry-picked samples (AID 588683)
Prothrombin = Prothrombin (Bos taurus, UniProt P00735); assay: thrombin inhibition, dose response, biochemical, fluorescence polarization, uHTS hits (AID 602369); format: functional
[6] = molecular target: T2, Tyrosine-protein phosphatase non-receptor type 7; format: functional

Chain of Intestinal-type alkaline phosphatase (Homo sapiens, UniProt P09923) (P09923 whole entry): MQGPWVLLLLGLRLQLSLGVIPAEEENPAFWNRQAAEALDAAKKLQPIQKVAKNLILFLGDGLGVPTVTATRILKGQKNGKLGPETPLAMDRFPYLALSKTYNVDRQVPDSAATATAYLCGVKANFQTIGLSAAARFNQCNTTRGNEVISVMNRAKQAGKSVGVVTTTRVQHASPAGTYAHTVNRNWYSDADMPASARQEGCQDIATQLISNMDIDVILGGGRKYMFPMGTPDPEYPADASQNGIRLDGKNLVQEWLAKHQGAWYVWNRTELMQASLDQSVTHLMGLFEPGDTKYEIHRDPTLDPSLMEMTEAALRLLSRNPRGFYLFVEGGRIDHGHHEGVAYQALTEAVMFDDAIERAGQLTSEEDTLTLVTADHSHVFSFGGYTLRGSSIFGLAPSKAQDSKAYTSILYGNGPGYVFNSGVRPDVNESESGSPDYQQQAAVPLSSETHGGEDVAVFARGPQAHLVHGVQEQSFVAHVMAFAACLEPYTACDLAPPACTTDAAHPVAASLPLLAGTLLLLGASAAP
Chain of Intestinal-type alkaline phosphatase (Mus musculus, UniProt P24822) (P24822 whole entry): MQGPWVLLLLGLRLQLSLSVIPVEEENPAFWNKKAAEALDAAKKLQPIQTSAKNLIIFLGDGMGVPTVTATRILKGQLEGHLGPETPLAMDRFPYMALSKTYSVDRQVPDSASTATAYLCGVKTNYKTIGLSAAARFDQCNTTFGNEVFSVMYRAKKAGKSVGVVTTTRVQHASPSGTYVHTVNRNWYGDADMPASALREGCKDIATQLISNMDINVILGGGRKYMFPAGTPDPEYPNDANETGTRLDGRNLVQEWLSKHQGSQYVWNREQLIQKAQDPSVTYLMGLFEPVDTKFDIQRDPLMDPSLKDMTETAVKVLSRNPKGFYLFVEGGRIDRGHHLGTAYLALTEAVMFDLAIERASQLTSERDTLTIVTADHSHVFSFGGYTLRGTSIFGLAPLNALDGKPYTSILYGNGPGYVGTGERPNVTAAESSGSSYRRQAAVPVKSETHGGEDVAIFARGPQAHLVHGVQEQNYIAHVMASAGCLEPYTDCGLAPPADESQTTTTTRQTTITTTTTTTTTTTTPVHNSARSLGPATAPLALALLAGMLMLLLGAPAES
Chain of Keap1/Nrf2 (Q16236 whole entry): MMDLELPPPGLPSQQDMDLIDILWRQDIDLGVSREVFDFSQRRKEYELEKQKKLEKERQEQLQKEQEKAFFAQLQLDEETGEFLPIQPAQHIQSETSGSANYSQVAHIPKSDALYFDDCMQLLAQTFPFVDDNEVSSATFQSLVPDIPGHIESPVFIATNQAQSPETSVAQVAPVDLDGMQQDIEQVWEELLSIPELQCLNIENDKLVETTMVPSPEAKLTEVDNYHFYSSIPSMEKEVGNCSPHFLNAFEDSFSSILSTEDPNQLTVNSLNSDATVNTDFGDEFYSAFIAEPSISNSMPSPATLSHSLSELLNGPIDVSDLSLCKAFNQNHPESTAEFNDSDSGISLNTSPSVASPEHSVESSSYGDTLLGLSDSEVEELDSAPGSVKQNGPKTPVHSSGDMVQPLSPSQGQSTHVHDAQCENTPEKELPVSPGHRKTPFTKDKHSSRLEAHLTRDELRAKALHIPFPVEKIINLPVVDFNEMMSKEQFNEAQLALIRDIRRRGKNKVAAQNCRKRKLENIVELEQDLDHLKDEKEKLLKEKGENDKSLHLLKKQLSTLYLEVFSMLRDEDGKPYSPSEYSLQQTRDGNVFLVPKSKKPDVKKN
Chain of Keap1/Nrf2 (Q14145 whole entry): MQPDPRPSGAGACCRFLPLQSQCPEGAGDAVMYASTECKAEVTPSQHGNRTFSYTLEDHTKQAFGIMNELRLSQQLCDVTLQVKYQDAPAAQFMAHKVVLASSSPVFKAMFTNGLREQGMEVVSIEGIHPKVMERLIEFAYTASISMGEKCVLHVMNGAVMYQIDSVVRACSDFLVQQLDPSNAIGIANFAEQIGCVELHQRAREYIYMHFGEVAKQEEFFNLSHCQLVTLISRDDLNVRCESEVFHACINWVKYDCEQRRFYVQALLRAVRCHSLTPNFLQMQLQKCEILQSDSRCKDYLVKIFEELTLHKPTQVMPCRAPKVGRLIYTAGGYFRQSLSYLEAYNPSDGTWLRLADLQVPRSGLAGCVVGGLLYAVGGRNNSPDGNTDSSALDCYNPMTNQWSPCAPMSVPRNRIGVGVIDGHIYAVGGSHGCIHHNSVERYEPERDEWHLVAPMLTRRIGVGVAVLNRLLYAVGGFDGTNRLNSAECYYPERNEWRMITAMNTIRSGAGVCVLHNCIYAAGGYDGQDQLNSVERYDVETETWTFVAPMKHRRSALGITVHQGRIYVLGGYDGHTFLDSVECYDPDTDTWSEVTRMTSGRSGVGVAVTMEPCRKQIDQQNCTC
Chain of 72 kDa type IV collagenase (P08253 whole entry): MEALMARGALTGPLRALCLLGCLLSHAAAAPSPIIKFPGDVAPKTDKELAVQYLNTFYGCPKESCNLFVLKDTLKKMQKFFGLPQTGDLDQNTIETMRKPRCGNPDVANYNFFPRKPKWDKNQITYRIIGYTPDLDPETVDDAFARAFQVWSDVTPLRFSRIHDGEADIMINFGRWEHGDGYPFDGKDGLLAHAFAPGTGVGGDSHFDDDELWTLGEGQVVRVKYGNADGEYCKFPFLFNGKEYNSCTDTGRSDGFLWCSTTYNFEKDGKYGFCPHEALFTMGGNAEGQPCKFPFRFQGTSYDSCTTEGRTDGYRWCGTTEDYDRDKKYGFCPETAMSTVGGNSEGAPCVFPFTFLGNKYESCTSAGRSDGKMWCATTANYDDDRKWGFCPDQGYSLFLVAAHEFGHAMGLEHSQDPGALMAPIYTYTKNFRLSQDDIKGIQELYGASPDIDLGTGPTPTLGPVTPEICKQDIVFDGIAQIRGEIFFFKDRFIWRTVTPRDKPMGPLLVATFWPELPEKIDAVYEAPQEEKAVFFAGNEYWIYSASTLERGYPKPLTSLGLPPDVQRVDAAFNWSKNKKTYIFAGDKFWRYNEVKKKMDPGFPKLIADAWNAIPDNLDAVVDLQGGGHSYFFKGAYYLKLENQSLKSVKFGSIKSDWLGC
Chain of Guanyl-specific ribonuclease T1 (P00651 whole entry): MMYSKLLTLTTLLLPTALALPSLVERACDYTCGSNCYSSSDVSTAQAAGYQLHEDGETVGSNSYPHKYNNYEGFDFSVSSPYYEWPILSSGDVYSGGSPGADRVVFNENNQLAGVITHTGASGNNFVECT

`COC(=O)c1cc(C)nc2c1C(=O)C(=O)C=C2N1CCOCC1` was tested, and the IC50 (Hexokinase HKDC1) was 4.41 µM (active).
With `NS(=O)(=O)c1cc(C(=O)NC2CCSc3ccccc32)ccc1Cl` (centres undefined) the IC50 [1] was 0.066 µM (active), the EC50 [2] was 5.57 µM (active) and the IC50 [3] was > 55.7 µM (not active). The IC50 [4] was 2.68 µM (active), the EC50 [5] was 49.4 µM (active) and the AC50 (Keap1/Nrf2) was > 52 µM (inactive). For the same compound, the IC50 (Prothrombin) was 24.5 µM (active).
With `N#Cc1c(N2CCCC2)nc(N)c2c(N)nc(N3CCCC3)cc12` the IC50 [6] was 74.3 µM (active).
